Blank lines part the entries; values can stand above or below the molecule they belong to.
Tests used:
ASIC1a = test system: ASIC1a; set-up: method as in PMID 25196733; details: cited from earlier work
ASIC currents = test system: ASIC currents; set-up: method as in PMID 16061325; details: read-out: IC50, non-selective inhibition of ASIC currents; cited from earlier work
[1] = test system: all of the functional isoforms of ASICs; set-up: method as in PMID 9261094; details: read-out: IC50, inhibition of ASICs; cited from earlier work
rat ASIC1a = target: T1, rat ASIC1a (Rattus norvegicus, UniProt P55926); assay: Two-electrode voltage clamp on X. laevis oocytes expressing rat ASIC1a; assay type: cell-based; details: for IC50: X. laevis oocytes, pH drop 7.4 to 5.5, holding potential −50 mV, mean ± SEM of 5–6, read-out: IC50, inhibition of ASIC1a current; for maximal current block, ASIC1a: effect reversible
T1 construct: expressed in transfected cells; host or cells: Xenopus laevis oocytes (cRNA injection)
T1 sequence (P55926 1-526): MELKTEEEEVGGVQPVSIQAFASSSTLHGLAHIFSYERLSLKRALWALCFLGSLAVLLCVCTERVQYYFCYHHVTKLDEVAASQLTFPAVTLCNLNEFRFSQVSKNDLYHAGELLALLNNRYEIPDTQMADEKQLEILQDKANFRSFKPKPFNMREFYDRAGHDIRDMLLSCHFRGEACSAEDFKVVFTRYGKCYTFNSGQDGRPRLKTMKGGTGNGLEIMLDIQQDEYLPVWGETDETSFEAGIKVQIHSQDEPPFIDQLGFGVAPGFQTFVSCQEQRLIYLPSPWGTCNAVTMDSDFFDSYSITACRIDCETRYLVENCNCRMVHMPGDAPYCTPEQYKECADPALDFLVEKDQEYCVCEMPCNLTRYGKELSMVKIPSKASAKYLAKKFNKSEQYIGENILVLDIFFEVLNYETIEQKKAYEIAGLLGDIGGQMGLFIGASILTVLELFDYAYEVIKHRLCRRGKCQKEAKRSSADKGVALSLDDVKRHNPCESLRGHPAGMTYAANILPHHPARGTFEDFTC
Protocol: (§1) Testing the activity of synthetic sevanol (s706) (as a mixture of 75% of sevanol and 25% of isosevanol) and its analogues (s590, EA, and s788) was carried out by the standard two-electrode voltage clamp method on X. laevis oocytes expressing rat ASIC1a and ASIC3 channels. The activation of the channels was performed using a rapid change of the solution from conditioning pH 7.4 to a solution with pH 5.5. Sevanol and its two analogues, s590 and EA, inhibited ASIC1a and ASIC3 channels.
(§2) Oocytes were harvested from female frogs anaesthetized with tricaine methane sulfonate (MS222) (0.17% solution), and the surgery was performed in an ice bath to avoid heavy bleeding. Defolliculated stage IV and V cells were injected with 2.5 and 10 ng cRNA, synthesized from PCi plasmids containing the rat ASIC1a and rat ASIC3 isoforms, respectively, using the Nanoliter 2000 microinjection system (World Precision Instruments, USA). The injected oocytes were kept for 2–3 days at 17 to 19 °C, and then for up to 5 days at 15 °C in a ND96 medium containing (in mM) 96 NaCl, 2 KCl, 1.8 CaCl2, 1 MgCl2, and 5 HEPES titrated to pH 7.4 with NaOH supplemented with gentamycin (50 μg/mL). Two-electrode voltage clamp recordings were performed at a holding potential of −50 mV using a GeneClamp 500 amplifier (Axon Instruments), and the data were filtered at 20 Hz and digitized at 100 Hz by an AD converter L780 (LCard, Russia). Microelectrodes were filled with 3 M KCl. The conditioning bath solution was ND96; the pH was adjusted to 7.4. The activating test solution was constructed based on the ND-96 buffer, in which 5 mM HEPES was replaced with 10 mM MES and pH was adjusted to 5.5. A computer-controlled valve system was used to achieve a rapid solution exchange in the recording chamber. A four parameter logistic equation was used for the curve-fitting analysis: F(x) = ((a1 − a2)/(1 + (x/x0)n)) + a2, where x is the concentration of the compound; F(x) is the response value at a given concentration of the compound; a1 is the control response value (fixed at 100%); x0 is the IC50 value; n is the Hill coefficient (slope factor); and a2 is the response value at the maximal inhibition (% of control).
(§3) Figure 2 The inhibitory activity of sevanol (s706) and its analogues. Currents were elicited by a drop from pH 7.4 to 5.5; the holding potential was −50 mV; (A,C) are dose–response curves for s706, s590 and EA inhibitory effects on ASIC1a and ASIC3 channels, respectively; (B,D) are reciprocal IC50 values for s706, s590 and EA inhibitory effects on ASIC1a and ASIC3 channels, respectively. The data were fitted by the logistic equation. Each point is the mean ± SEM of 5–6 measurements. * p < 0.05, ** p < 0.005.

rat ASIC3 = target: T2, rat ASIC3 (Rattus norvegicus, UniProt O35240); assay: Two-electrode voltage clamp on X. laevis oocytes expressing rat ASIC3; assay type: cell-based; details: for IC50: X. laevis oocytes, pH drop 7.4 to 5.5, holding potential −50 mV, mean ± SEM of 5–6, read-out: IC50, inhibition of ASIC3 current; for maximal current block, ASIC3: effect reversible
T2 construct: expressed in transfected cells; host or cells: Xenopus laevis oocytes (cRNA injection)
T2 sequence (O35240 1-533): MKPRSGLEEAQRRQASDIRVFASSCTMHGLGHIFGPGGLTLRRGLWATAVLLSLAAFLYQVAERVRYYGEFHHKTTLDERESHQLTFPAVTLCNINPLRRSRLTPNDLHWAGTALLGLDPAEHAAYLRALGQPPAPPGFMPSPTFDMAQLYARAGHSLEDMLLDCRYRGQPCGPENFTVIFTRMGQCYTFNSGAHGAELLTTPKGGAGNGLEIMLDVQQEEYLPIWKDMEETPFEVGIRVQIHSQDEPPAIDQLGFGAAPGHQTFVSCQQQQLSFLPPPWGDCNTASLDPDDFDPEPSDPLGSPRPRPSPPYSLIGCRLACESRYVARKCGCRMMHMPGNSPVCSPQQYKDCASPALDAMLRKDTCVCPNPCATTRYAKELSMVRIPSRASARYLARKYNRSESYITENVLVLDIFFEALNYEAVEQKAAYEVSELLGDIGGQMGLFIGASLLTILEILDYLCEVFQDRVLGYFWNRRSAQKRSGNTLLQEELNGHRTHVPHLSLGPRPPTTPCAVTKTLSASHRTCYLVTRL
Protocol: as §1, §2, §3

[2] = test system: ASIC3-containing channels; set-up: method as in PMID 11588175; details: read-out: IC50, inhibition of ASIC3-containing channels; cited from earlier work
[3] = test system: ASIC1a-containing channels; set-up: method as in PMID 11588175; details: read-out: IC50, inhibition of ASIC1a-containing channels; cited from earlier work

Compound: Nc1c2ccccc2nc2ccccc12 [9-aminoacridine]
inhibition of ASIC1a (ASIC1a): inhibit ASIC1a in submillimolar concentrations

Compound: CC(C)C1c2cc(C3CC3c3ccc4cc(C(=N)N)ccc4c3)ccc2CCN1C (stereo not shown) [A-317567]
IC50 (ASIC currents): 2 to 30 µM

Compound: N=C(N)NC(=O)c1nc(Cl)c(N)nc1N [Amiloride]
IC50 [1]: 10 to 60 µM

IC50 (rat ASIC1a): 415 ± 66 µM | maximal current block, ASIC1a (rat ASIC1a; pH 7.4 to 5.5): 100% | IC50 (rat ASIC3): 424 ± 33 µM | maximal current block, ASIC3 (rat ASIC3; pH 7.4 to 5.5): 100%
Compound: O=C(O)C1=Cc2cc(O)c(O)cc2[C@@H](c2ccc(O)c(O)c2)[C@@H]1C(=O)O [EA, epiphyllic acid]
effectiveness in inhibiting ASIC3 relative to ASIC1a (rat ASIC3; ratio of ASIC1a and ASIC3 inhibition): acted equally on the ASIC1a and ASIC3 channels

Compound: CC(=O)Oc1ccccc1C(=O)O [aspirin]
IC50 [2]: 260 µM

Compound: O=C(O)Cc1ccccc1Nc1c(Cl)cccc1Cl [diclofenac]
IC50 [2]: 92 µM

Compound: CC(C(=O)O)c1ccc(-c2ccccc2)c(F)c1 (stereo not shown) [flurbiprofen]
IC50 [3]: 350 µM

Compound: CC(C)Cc1ccc(C(C)C(=O)O)cc1 (stereo not shown) [ibuprofen]
IC50 [3]: 350 µM

Compound: CC12CC3CC(C)(C1)CC(N)(C3)C2 [memantine]
inhibition of ASIC1a (ASIC1a): inhibit ASIC1a in submillimolar concentrations

IC50 (rat ASIC1a): 297 ± 41 µM | maximal current block, ASIC1a (rat ASIC1a; pH 7.4 to 5.5): 100% | IC50 (rat ASIC3): 241 ± 25 µM | maximal current block, ASIC3 (rat ASIC3; pH 7.4 to 5.5): 100%
Compound: O=C(O)CC(OC(=O)C1=Cc2cc(O)c(O)cc2C(c2ccc(O)c(O)c2)C1C(=O)OC(CC(=O)O)C(=O)O)C(=O)O (stereo not shown) [s590, 2,2′-((1-(3,4-dihydroxyphenyl)-6,7-dihydroxy-1,2-dihydronaphthalene-2,3-dicarbonyl)bis(oxy))disuccinic acid]

activity on ASIC1a channel (rat ASIC1a; pH 7.4 to 5.5): did not demonstrate any activity | activity on ASIC3 channel (rat ASIC3; pH 7.4 to 5.5): did not demonstrate any activity
Compound: COC(=O)CC(C(=O)OC)C(OC(=O)C1=Cc2cc(O)c(O)cc2C(c2ccc(O)c(O)c2)C1C(=O)OC(C(=O)OC)C(CC(=O)OC)C(=O)OC)C(=O)OC (stereo not shown) [s788, Hexamethyl1,1′-((1-(3,4-dihydroxyphenyl)-6,7-dihydroxy-1,2-dihydronaphthalene-2,3-dicarbonyl)bis(oxy))bis(propane-1,2,3-tricarboxylate)]
